Test results taken from EPA's ToxValDB 9.5.
“And” between values parts separate entries of the source, which are not always exact repeats. Equal entries are not always repeated.

What was measured:
Rattus norvegicus [1] = conditions: oral, M/F
Oryctolagus sp. = conditions: acute
Rattus norvegicus [2] = conditions: for LC50 / LD50: acute
Rattus norvegicus [3] = conditions: Hershberger, duration: 10 days, oral, gavage, Wistar
[4] = developmental, reduced body weight gain in parental animals and pups
[5] = subchronic, duration: 90 days, diet, increased liver weight, serum cholesterol, hepatic aminopyrine n-demethylase activity, and alanine transaminase levels
[6] = subchronic, duration: 90 days, oral, diet, Wistar
[7] = subchronic, duration: 13 weeks, gavage, decreased testis weight and altered spermatogenesis in males. + Increased heart weight in females and males
[8] = reproduction developmental, duration: 39 days, oral, gavage, generation: F0
[9] = short-term, duration: 28 days, oral, gavage
[10] = subchronic, duration: 90 days, oral, diet, Sprague-Dawley
[11] = reproduction developmental, oral, gavage, Sprague-Dawley
[12] = subchronic, duration: 13 weeks, oral, gavage, Sprague-Dawley

In the case of `CCN(CC)C(=O)C(C)Oc1cccc2ccccc12` (centres undefined) [Napropamide], the LEL (Rattus norvegicus [1]; [4]) is reported as 100 mg/kg-day and the NOEL (Rattus norvegicus [1]; [4]) is reported as 30 mg/kg-day.
With `OC1CCCCC1` [Cyclohexanol] the LD50 (Oryctolagus sp.; dermal, New Zealand) was ≥ 501 mg/kg and ≤ 794 mg/kg, the LC50 (Rattus norvegicus [2]; Inhalation, Sprague-Dawley) was over 3.63 µg/mL and the LD50 (Rattus norvegicus [2]; oral, gavage, Carworth Wistar) was 2060 mg/kg. For the same compound, the LD50 (Rattus norvegicus [2]; oral, gavage, Sprague-Dawley) was 1550 mg/kg, the NOAEL (Rattus norvegicus [2]; developmental, inhalation, Sprague-Dawley) was 614 mg/m3 and the NOAEL (Rattus norvegicus [2]; reproduction developmental, duration: 10 weeks, inhalation, Sprague-Dawley, generation: F0) was 614 mg/m3. The NOAEL (Rattus norvegicus [2]; reproduction developmental, duration: 10 weeks, inhalation, Sprague-Dawley, generation: F1) was 614 mg/m3 and the NOAEL (Rattus norvegicus [2]; reproduction developmental, duration: 13 weeks, inhalation, Sprague-Dawley) was 614 mg/m3.
`CCCC[N+](CC)(CCCC)CCCCCC[N+](CC)(CCCC)CCCC.[OH-].[OH-]` gave an LD50 (Oryctolagus sp.; dermal, New Zealand) of 22.4 mg/kg and an LD50 (Rattus norvegicus [2]; oral, gavage, Sprague-Dawley) of 350 mg/kg.
In the case of `CCCCCCCCCCCCN(C)C` [N,N-Dimethyldodecan-1-amine], the LD50 (Oryctolagus sp.; dermal, occlusive, New Zealand) is reported as 5000 mg/kg and the LD50 (Rattus norvegicus [2]; oral, gavage, Wistar) is reported as 1220 mg/kg and 790 mg/kg.
With `Nc1ccc(Cl)cc1` [4-Chloroaniline] the LOAEL (Rattus norvegicus [1]; chronic, nonneoplastic lesions of splenic capsule) was 12.5 mg/kg-day.
In the case of `CCCCCCCCCc1cc2ccccc2c(S(=O)(=O)O)c1CCCCCCCCC` [Dinonylnaphthalenesulfonic acid], the LD50 (Oryctolagus sp.; dermal, New Zealand) is reported as over 2000 mg/kg, the LC50 (Rattus norvegicus [2]; Inhalation, Wistar) is reported as over 200 µg/mL and the LD50 (Rattus norvegicus [2]; oral, gavage, Sprague-Dawley) is reported as over 5000 mg/kg.
`CC(C)(C)[C@H](O)[C@H](Cc1ccc(Cl)cc1)n1cncn1` (racemic) [Paclobutrazol] was tested, and the LEL (Rattus norvegicus [1]; [5]) was 62.5 mg/kg-day and the NOEL (Rattus norvegicus [1]; [5]) was 12.5 mg/kg-day.
`O=C(Cl)c1ccccc1` [Benzoyl chloride] was tested, and the LD50 (Oryctolagus sp.; dermal) was 790 mg/kg, the LD50 (Oryctolagus sp.; dermal, occlusive, New Zealand) was over 2000 mg/kg and the LC50 (Rattus norvegicus [2]; inhalation) was 1.87 µg/mL. The LC50 (Rattus norvegicus [2]; inhalation, Wistar) was 1.45 µg/mL and > 1.98 µg/mL and > 2.34 µg/mL, the LD50 (Rattus norvegicus [2]; oral) was 2460 mg/kg and 1900 mg/kg and the LD50 (Rattus norvegicus [2]; oral, Spartan) was 2620 mg/kg. The LD50 (Rattus norvegicus [2]; oral, gavage, Wistar) was 2530 mg/kg.
Compound `O=P(OC(CCl)CCl)(OC(CCl)CCl)OC(CCl)CCl` [Tris(1,3-dichloro-2-propyl) phosphate] has an LD50 (Oryctolagus sp.; dermal) of over 4640 mg/kg, an LD50 (Oryctolagus sp.; oral, gavage, Dutch-belted) of 6800 mg/kg and an LD50 (Rattus norvegicus [2]; oral, gavage, Sprague-Dawley) of 3160 mg/kg. It also gave an NOAEL (Rattus norvegicus [2]; chronic, duration: 12 months, oral, diet, Sprague-Dawley) of 5 mg/kg-day, an NOAEL (Rattus norvegicus [2]; developmental, duration: 10 days, oral, gavage, Sprague-Dawley) of 100 mg/kg-day and an NOAEL (Rattus norvegicus [2]; reproduction developmental, duration: 10 days, oral, gavage, F, Sprague-Dawley) of 25 mg/kg-day.
`CCCCCCCCC(=O)OCC(CC)(COC(=O)CCCCCCCC)COC(=O)CCCCCCCC` [Trimethylolpropane trinonanoate] was tested, and the LD50 (Oryctolagus sp.; dermal) was over 2000 mg/kg, the LD50 (Rattus norvegicus [2]; oral, gavage, Crl:CD(SD)) was over 2000 mg/kg and the LD50 (Rattus norvegicus [2]; oral, gavage, Sherman Wistar) was over 5000 mg/kg. For the same compound, the LD50 (Rattus norvegicus [2]; oral, gavage, Sprague-Dawley) was over 2000 mg/kg and the LD50 (Rattus norvegicus [2]; oral, gavage, Wistar) was over 2000 mg/kg.
With `CCCCCCC=O` [Heptanal] the LD50 (Oryctolagus sp.; dermal) was over 5000 mg/kg, the LC50 (Rattus norvegicus [2]; Inhalation, Sprague-Dawley) was over 4.7 µg/mL and the LD50 (Rattus norvegicus [2]; oral, gavage) was over 5000 mg/kg. The NOAEL (Rattus norvegicus [2]; reproduction developmental, oral, gavage, F, Wistar) was 2050 mg/kg-day, the LOAEL (Rattus norvegicus [2]; [6]) was 150 mg/kg-day and the NOAEL (Rattus norvegicus [2]; [6]) was 37 mg/kg-day.
With `O=C([O-])CF.[Na+]` [Sodium fluoroacetate] the LOAEL (Rattus norvegicus [1]; [7]) was 0.2 mg/kg-day and the NOAEL (Rattus norvegicus [1]; [7]) was 0.05 mg/kg-day.
`CN(C)NC(=O)CCC(=O)O` [Daminozide] showed an NOEL (Rattus norvegicus [1]; reproduction developmental, no effects) of 15 mg/kg-day.
With `CCCCCCCCCCCCOC(=O)CS(=O)(=O)[O-].[Na+]` [Sodium 2-(dodecyloxy)-2-oxoethane-1-sulphonate] the LD50 (Oryctolagus sp.; dermal, occlusive, New Zealand) was over 2000 mg/kg, the LD50 (Rattus norvegicus [2]; oral, Wistar) was 1000 mg/kg and the LD50 (Rattus norvegicus [2]; oral, gavage, Sprague-Dawley) was over 2000 mg/kg. It also gave an NOAEL (Rattus norvegicus [2]; reproduction developmental, duration: 39 days, oral, gavage) of 1000 mg/kg-day, an LOAEL (Rattus norvegicus [2]; [8]) of 1000 mg/kg-day and an NOAEL (Rattus norvegicus [2]; [8]) of 200 mg/kg-day. The LOAEL (Rattus norvegicus [2]; [9]) was 800 mg/kg-day and the NOAEL (Rattus norvegicus [2]; [9]) was 200 mg/kg-day.
`CCCC(c1cc(C(C)(C)C)c(O)cc1C)c1cc(C(C)(C)C)c(O)cc1C` [4,4'-Butane-1,1-diylbis(2-tert-butyl-5-methylphenol)] gave an NOEL (Rattus norvegicus [3]; inactive + Negative + Negative + anti-androgenic + negative) of 125 mg/kg-day, an NOEL (Rattus norvegicus [3]; inactive + Negative + Negative + anti-androgenic + negative / effects on thyroid at 125 (initial increase in T4 at 5)) of 125 mg/kg-day and an LD50 (Oryctolagus sp.; dermal, New Zealand) of over 7940 mg/kg. The LD50 (Rattus norvegicus [2]; oral, gavage, Sprague-Dawley) was over 7940 mg/kg, the NOAEL (Rattus norvegicus [2]; reproduction developmental, duration: 90 days, oral, diet, M, Sprague-Dawley) was 100 ppm and the LOAEL (Rattus norvegicus [2]; [10]) was 48 mg/kg-day. For the same compound, the NOAEL (Rattus norvegicus [2]; [10]) was 9.6 mg/kg-day.
In the case of `CCOP(=O)(CN(CCO)CCO)OCC` [Diethyl (N,N-bis(2-hydroxyethyl)amino)methanephosphonate], the LD50 (Oryctolagus sp.; dermal) is reported as over 2000 mg/kg, the LD50 (Oryctolagus sp.; dermal, Albino) is reported as over 2000 mg/kg and the LD50 (Rattus norvegicus [2]; oral, gavage, Sprague-Dawley) is reported as over 5000 mg/kg. It also gave an LOAEL (Rattus norvegicus [2]; [11]) of over 750 mg/kg-day, an NOAEL (Rattus norvegicus [2]; [11]) of 750 mg/kg-day and an LOAEL (Rattus norvegicus [2]; [12]) of over 500 mg/kg-day. For the same compound, the NOAEL (Rattus norvegicus [2]; [12]) was 500 mg/kg-day.
